Consider 15 molecules from ChEMBL document CHEMBL4229556, “Discovery and development of substituted tyrosine derivatives as Bcl-2/Mcl-1 inhibitors” (Bioorg Med Chem, 2018).

In one assay the target is Apoptosis regulator Bcl-2 (Homo sapiens, UniProt P10415). Description: Inhibition of Bid-BH3 peptide binding to Bcl-2 (unknown origin) after 3 hrs by fluorescence polarization method. The following applies: read-out: Ki.
Sequence of Apoptosis regulator Bcl-2 (P10415 whole entry): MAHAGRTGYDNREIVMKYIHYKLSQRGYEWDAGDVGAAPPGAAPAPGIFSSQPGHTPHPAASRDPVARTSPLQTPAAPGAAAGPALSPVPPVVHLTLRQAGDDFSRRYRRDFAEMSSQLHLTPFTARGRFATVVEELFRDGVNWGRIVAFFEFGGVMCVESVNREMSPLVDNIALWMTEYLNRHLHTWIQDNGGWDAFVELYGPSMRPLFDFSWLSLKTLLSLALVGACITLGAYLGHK
For the molecule `CC(C)(C)OC(=O)N[C@@H](Cc1ccc(OCc2ccccc2)cc1)C(=O)NS(=O)(=O)c1ccc(NCCCc2ccccc2)c([N+](=O)[O-])c1`, the Ki is 1500 nM.
Same read-out and setting: under `CC(C)(C)OC(=O)N[C@@H](Cc1ccc(OCc2ccc(-c3ccc(Cl)cc3)cc2)cc1)C(=O)NS(=O)(=O)c1ccc(Cl)c([N+](=O)[O-])c1` stands 580 nM; under `CC(C)(C)OC(=O)N[C@@H](Cc1ccc(OCc2ccc(C#N)cc2)cc1)C(=O)NS(=O)(=O)c1ccc(NCCCc2ccccc2)c([N+](=O)[O-])c1`, 800 nM.
The same measure, in the same setting: the result for `CC(C)(C)OC(=O)N[C@@H](Cc1ccc(OCc2ccc(-c3ccccc3)cc2)cc1)C(=O)NS(=O)(=O)c1ccc(Cl)c([N+](=O)[O-])c1` reads 620 nM; that for `CC(C)(C)OC(=O)N[C@@H](Cc1ccc(OCc2ccc(Oc3ccccc3)cc2)cc1)C(=O)NS(=O)(=O)c1ccc(Cl)c([N+](=O)[O-])c1`, 700 nM; that for `O=C(N[C@@H](Cc1ccc(OCc2ccc(-c3ccccc3)cc2)cc1)C(=O)NS(=O)(=O)c1ccc(Cl)c([N+](=O)[O-])c1)c1ccc2ccccc2c1`, 570 nM.
Turning to `Cc1ccc(-c2ccc(COc3ccc(C[C@H](NC(=O)OC(C)(C)C)C(=O)NS(=O)(=O)c4ccc(NCCOc5ccccc5)c([N+](=O)[O-])c4)cc3)cc2)cc1`, the Ki is 850 nM.
Still for that read-out and setting: the result for `O=C(N[C@@H](Cc1ccc(OCc2ccc(-c3ccccc3)cc2)cc1)C(=O)NS(=O)(=O)c1ccc(Cl)c([N+](=O)[O-])c1)c1cccnc1` reads 580 nM; that for `CCCCCC(=O)N[C@@H](Cc1ccc(OCc2ccc(-c3ccccc3)cc2)cc1)C(=O)NS(=O)(=O)c1ccc(Cl)c([N+](=O)[O-])c1`, 560 nM.
On the same count and under the same terms, under `Cc1ccc(CC(=O)N[C@@H](Cc2ccc(OCc3ccc(-c4ccccc4)cc3)cc2)C(=O)NS(=O)(=O)c2ccc(Cl)c([N+](=O)[O-])c2)cc1` stands 1100 nM; under `CC(C)(C)OC(=O)N[C@@H](Cc1ccc(OCc2ccc(-c3ccccc3)cc2)cc1)C(=O)NS(=O)(=O)c1ccccc1`, 5200 nM; under `Cc1ccc(-c2ccc(COc3ccc(C[C@H](NC(=O)OC(C)(C)C)C(=O)NS(=O)(=O)c4ccc(Cl)c([N+](=O)[O-])c4)cc3)cc2)cc1`, 390 nM.
Still for that read-out and setting: under `Cc1ccc(CC(=O)N[C@@H](Cc2ccc(OCc3ccc(-c4ccccc4)cc3)cc2)C(=O)NS(=O)(=O)c2ccc(NCCCc3ccccc3)c([N+](=O)[O-])c2)cc1` stands 450 nM; under `N#Cc1ccc(COc2ccc(C[C@H](NC(=O)Cc3ccc(-c4ccccc4)cc3)C(=O)NS(=O)(=O)c3ccc(NC4CCCC4)c([N+](=O)[O-])c3)cc2)cc1`, 610 nM.
Turning to `Cc1ccc(CC(=O)N[C@@H](Cc2ccc(OCc3ccccc3)cc2)C(=O)NS(=O)(=O)c2ccc(NCCCc3ccccc3)c([N+](=O)[O-])c2)cc1`, the inhibitory constant (Ki) came out at 450 nM.

For a further assay, the target named is Bcl-2-like protein 1 (Homo sapiens, UniProt Q07817). Put plainly: Inhibition of Bid-BH3 peptide binding to Bcl-xL (unknown origin) after 3 hrs by fluorescence polarization method.
Sequence of Bcl-2-like protein 1 (Q07817 whole entry): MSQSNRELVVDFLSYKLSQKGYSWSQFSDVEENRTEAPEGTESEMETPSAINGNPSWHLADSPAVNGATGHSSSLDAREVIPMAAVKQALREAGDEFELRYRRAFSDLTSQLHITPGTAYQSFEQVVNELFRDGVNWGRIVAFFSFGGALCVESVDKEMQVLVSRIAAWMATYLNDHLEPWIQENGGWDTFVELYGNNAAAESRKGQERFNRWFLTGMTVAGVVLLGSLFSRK
Details: not given; call rule not given here
For `CC(C)(C)OC(=O)N[C@@H](Cc1ccc(OCc2ccc(-c3ccccc3)cc2)cc1)C(=O)NS(=O)(=O)c1ccc(Cl)c([N+](=O)[O-])c1`, the inhibitory constant (Ki) result was “Not Active”.
As for `Cc1ccc(CC(=O)N[C@@H](Cc2ccc(OCc3ccc(-c4ccccc4)cc3)cc2)C(=O)NS(=O)(=O)c2ccc(NCCCc3ccccc3)c([N+](=O)[O-])c2)cc1`, the Ki result is listed as “Not Active”.
As to `Cc1ccc(CC(=O)N[C@@H](Cc2ccc(OCc3ccccc3)cc2)C(=O)NS(=O)(=O)c2ccc(NCCCc3ccccc3)c([N+](=O)[O-])c2)cc1`, the inhibition constant (Ki) entry is listed as “Not Active”.

The target in another assay is Induced myeloid leukemia cell differentiation protein Mcl-1 (Homo sapiens, UniProt Q07820). Description: Inhibition of Bid-BH3 peptide binding to Mcl-1 (unknown origin) after 3 hrs by fluorescence polarization method.
Sequence of Induced myeloid leukemia cell differentiation protein Mcl-1 (Q07820 whole entry): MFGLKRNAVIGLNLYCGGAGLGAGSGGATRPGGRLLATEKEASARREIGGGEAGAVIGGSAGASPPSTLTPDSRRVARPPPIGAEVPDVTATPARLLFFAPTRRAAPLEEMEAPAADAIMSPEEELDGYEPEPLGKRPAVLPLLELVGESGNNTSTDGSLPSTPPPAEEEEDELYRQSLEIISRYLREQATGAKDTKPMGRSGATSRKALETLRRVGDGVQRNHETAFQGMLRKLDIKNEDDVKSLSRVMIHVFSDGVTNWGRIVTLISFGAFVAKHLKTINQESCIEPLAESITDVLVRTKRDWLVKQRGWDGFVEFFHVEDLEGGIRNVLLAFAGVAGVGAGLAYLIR
Details: not given
Molecule `CC(C)(C)OC(=O)N[C@@H](Cc1ccc(OCc2ccc(-c3ccccc3)cc2)cc1)C(=O)NS(=O)(=O)c1ccc(Cl)c([N+](=O)[O-])c1` had a Ki of 450 nM.
The molecule `Cc1ccc(CC(=O)N[C@@H](Cc2ccc(OCc3ccc(-c4ccccc4)cc3)cc2)C(=O)NS(=O)(=O)c2ccc(NCCCc3ccccc3)c([N+](=O)[O-])c2)cc1` had a Ki of 190 nM.
Still for that read-out and setting: the result for `Cc1ccc(CC(=O)N[C@@H](Cc2ccc(OCc3ccccc3)cc2)C(=O)NS(=O)(=O)c2ccc(NCCCc3ccccc3)c([N+](=O)[O-])c2)cc1` reads 500 nM.

In the next assay the test system is Jurkat. Put plainly: Antiproliferative activity against human Jurkat cells after 72 hrs by MTT assay. Format: functional, cell-based.
Details: not given
`CC(C)(C)OC(=O)N[C@@H](Cc1ccc(OCc2ccc(-c3ccccc3)cc2)cc1)C(=O)NS(=O)(=O)c1ccc(Cl)c([N+](=O)[O-])c1` yielded a half-inhibitory concentration (IC50) of 23500 nM.
Same read-out and setting: the result for `Cc1ccc(CC(=O)N[C@@H](Cc2ccc(OCc3ccc(-c4ccccc4)cc3)cc2)C(=O)NS(=O)(=O)c2ccc(NCCCc3ccccc3)c([N+](=O)[O-])c2)cc1` reads 3370 nM.
On the same count and under the same terms, the result for `Cc1ccc(CC(=O)N[C@@H](Cc2ccc(OCc3ccccc3)cc2)C(=O)NS(=O)(=O)c2ccc(NCCCc3ccccc3)c([N+](=O)[O-])c2)cc1` reads 23800 nM.

The subject of the next assay is RS4-11. Put plainly: Antiproliferative activity against human RS4:11 cells after 72 hrs by MTT assay. It is filed as functional, cell-based. The following applies: RS4-11, 72 h.
Consider `CC(C)(C)OC(=O)N[C@@H](Cc1ccc(OCc2ccc(-c3ccccc3)cc2)cc1)C(=O)NS(=O)(=O)c1ccc(Cl)c([N+](=O)[O-])c1`, for which the 50% inhibitory concentration (IC50) was 14000 nM.
The same measure, in the same setting: under `Cc1ccc(CC(=O)N[C@@H](Cc2ccc(OCc3ccc(-c4ccccc4)cc3)cc2)C(=O)NS(=O)(=O)c2ccc(NCCCc3ccccc3)c([N+](=O)[O-])c2)cc1` stands 3390 nM.
`Cc1ccc(CC(=O)N[C@@H](Cc2ccc(OCc3ccccc3)cc2)C(=O)NS(=O)(=O)c2ccc(NCCCc3ccccc3)c([N+](=O)[O-])c2)cc1` came in with an IC50 of 16800 nM.

In another assay the test system is THP-1. Put plainly: Antiproliferative activity against human THP1 cells after 72 hrs by MTT assay. The following applies: THP-1, 72 h. It is filed as functional, cell-based.
Consider `CC(C)(C)OC(=O)N[C@@H](Cc1ccc(OCc2ccc(-c3ccccc3)cc2)cc1)C(=O)NS(=O)(=O)c1ccc(Cl)c([N+](=O)[O-])c1`, for which the IC50 is 27200 nM.
Regarding `Cc1ccc(CC(=O)N[C@@H](Cc2ccc(OCc3ccc(-c4ccccc4)cc3)cc2)C(=O)NS(=O)(=O)c2ccc(NCCCc3ccccc3)c([N+](=O)[O-])c2)cc1`, the 50% inhibitory concentration (IC50) is 6460 nM.
The same measure, in the same setting: under `Cc1ccc(CC(=O)N[C@@H](Cc2ccc(OCc3ccccc3)cc2)C(=O)NS(=O)(=O)c2ccc(NCCCc3ccccc3)c([N+](=O)[O-])c2)cc1` stands 23900 nM.

In a further assay the test system is MOLT-4. Put plainly: Antiproliferative activity against human MOLT4 cells after 72 hrs by MTT assay. Format: functional, cell-based. The following applies: MOLT-4, 72 h.
`CC(C)(C)OC(=O)N[C@@H](Cc1ccc(OCc2ccc(-c3ccccc3)cc2)cc1)C(=O)NS(=O)(=O)c1ccc(Cl)c([N+](=O)[O-])c1` showed a half-maximal inhibitory concentration (IC50) of 44400 nM.
On the same count and under the same terms, the result for `Cc1ccc(CC(=O)N[C@@H](Cc2ccc(OCc3ccc(-c4ccccc4)cc3)cc2)C(=O)NS(=O)(=O)c2ccc(NCCCc3ccccc3)c([N+](=O)[O-])c2)cc1` reads 8360 nM; that for `Cc1ccc(CC(=O)N[C@@H](Cc2ccc(OCc3ccccc3)cc2)C(=O)NS(=O)(=O)c2ccc(NCCCc3ccccc3)c([N+](=O)[O-])c2)cc1`, > 50000 nM.

Another assay deals with HUVEC. Put plainly: Cytotoxicity against HUVEC cells after 72 hrs by MTT assay. It is filed as cell-based. Particulars: Homo sapiens.
Turning to `CC(C)(C)OC(=O)N[C@@H](Cc1ccc(OCc2ccc(-c3ccccc3)cc2)cc1)C(=O)NS(=O)(=O)c1ccc(Cl)c([N+](=O)[O-])c1`, the IC50 was > 50000 nM.
On the same count and under the same terms, under `Cc1ccc(CC(=O)N[C@@H](Cc2ccc(OCc3ccc(-c4ccccc4)cc3)cc2)C(=O)NS(=O)(=O)c2ccc(NCCCc3ccccc3)c([N+](=O)[O-])c2)cc1` stands > 50000 nM; under `Cc1ccc(CC(=O)N[C@@H](Cc2ccc(OCc3ccccc3)cc2)C(=O)NS(=O)(=O)c2ccc(NCCCc3ccccc3)c([N+](=O)[O-])c2)cc1`, > 50000 nM.

Another assay concerns Jurkat. Description: Induction of apoptosis in human Jurkat cells assessed as viable cells at 10 uM after 48 hrs by annexin V-FITC/PI staining based flow cytometry (reference value: 97.4%). It is filed as functional. Particulars: read-out: Activity.
As to `Cc1ccc(CC(=O)N[C@@H](Cc2ccc(OCc3ccc(-c4ccccc4)cc3)cc2)C(=O)NS(=O)(=O)c2ccc(NCCCc3ccccc3)c([N+](=O)[O-])c2)cc1`, the viability at 10 µM is 93.8%.

The next assay deals with Jurkat. Put plainly: Induction of apoptosis in human Jurkat cells assessed as early apoptotic cells at 10 uM after 48 hrs by annexin V-FITC/PI staining based flow cytometry (reference value: 2.26%). Format: functional.
Details: not given
Regarding `Cc1ccc(CC(=O)N[C@@H](Cc2ccc(OCc3ccc(-c4ccccc4)cc3)cc2)C(=O)NS(=O)(=O)c2ccc(NCCCc3ccccc3)c([N+](=O)[O-])c2)cc1`, the Activity is recorded as 5.48%.

In a further assay the test system is Jurkat. Description: Induction of apoptosis in human Jurkat cells assessed as late apoptotic cells at 10 uM after 48 hrs by annexin V-FITC/PI staining based flow cytometry (reference value: 0.31%). Format: functional.
Details: not given
For the molecule `Cc1ccc(CC(=O)N[C@@H](Cc2ccc(OCc3ccc(-c4ccccc4)cc3)cc2)C(=O)NS(=O)(=O)c2ccc(NCCCc3ccccc3)c([N+](=O)[O-])c2)cc1`, the Activity came out at 0.72%.

In a further assay the test system is Jurkat. Put plainly: Induction of apoptosis in human Jurkat cells assessed as necrotic cells at 10 uM after 48 hrs by annexin V-FITC/PI staining based flow cytometry (reference value: 0.008%). It is filed as functional.
Details: not given
Regarding `Cc1ccc(CC(=O)N[C@@H](Cc2ccc(OCc3ccc(-c4ccccc4)cc3)cc2)C(=O)NS(=O)(=O)c2ccc(NCCCc3ccccc3)c([N+](=O)[O-])c2)cc1`, the Activity was found to be 0.037%.

Another assay has as its system Jurkat. Description: Induction of apoptosis in human Jurkat cells assessed as viable cells at 20 uM after 48 hrs by annexin V-FITC/PI staining based flow cytometry (reference value: 97.4%). It is filed as functional. The following applies: read-out: Activity.
As for `Cc1ccc(CC(=O)N[C@@H](Cc2ccc(OCc3ccc(-c4ccccc4)cc3)cc2)C(=O)NS(=O)(=O)c2ccc(NCCCc3ccccc3)c([N+](=O)[O-])c2)cc1`, the viability at 20 µM came out at 77.8%.

The next assay concerns Jurkat. Put plainly: Induction of apoptosis in human Jurkat cells assessed as early apoptotic cells at 20 uM after 48 hrs by annexin V-FITC/PI staining based flow cytometry (reference value: 2.26%). Format: functional.
Details: not given
With `Cc1ccc(CC(=O)N[C@@H](Cc2ccc(OCc3ccc(-c4ccccc4)cc3)cc2)C(=O)NS(=O)(=O)c2ccc(NCCCc3ccccc3)c([N+](=O)[O-])c2)cc1`, the Activity worked out at 20.8%.

For the next assay, the system named is Jurkat. Put plainly: Induction of apoptosis in human Jurkat cells assessed as late apoptotic cells at 20 uM after 48 hrs by annexin V-FITC/PI staining based flow cytometry (reference value: 0.31%). It is filed as functional.
Details: not given
Consider `Cc1ccc(CC(=O)N[C@@H](Cc2ccc(OCc3ccc(-c4ccccc4)cc3)cc2)C(=O)NS(=O)(=O)c2ccc(NCCCc3ccccc3)c([N+](=O)[O-])c2)cc1`, for which the Activity stood at 1.42%.

A further assay relates to Jurkat. Description: Induction of apoptosis in human Jurkat cells assessed as necrotic cells at 20 uM after 48 hrs by annexin V-FITC/PI staining based flow cytometry (reference value: 0.008%). Format: functional.
Details: not given
Take `Cc1ccc(CC(=O)N[C@@H](Cc2ccc(OCc3ccc(-c4ccccc4)cc3)cc2)C(=O)NS(=O)(=O)c2ccc(NCCCc3ccccc3)c([N+](=O)[O-])c2)cc1`: the Activity worked out at 0%.

The subject of another assay is Jurkat. Description: Induction of apoptosis in human Jurkat cells after 48 hrs by annexin V-FITC/PI staining based flow cytometry.
Details: not given
Format: functional, cell-based.
With `Cc1ccc(CC(=O)N[C@@H](Cc2ccc(OCc3ccc(-c4ccccc4)cc3)cc2)C(=O)NS(=O)(=O)c2ccc(NCCCc3ccccc3)c([N+](=O)[O-])c2)cc1`, the Activity entry was “Dose-dependent effect”.

The subject of a further assay is Jurkat. Put plainly: Induction of apoptosis in human Jurkat cells assessed as increase in activation of caspase-3 after 48 hrs by fluorometric method. Format: functional, cell-based.
Details: not given
Take `Cc1ccc(CC(=O)N[C@@H](Cc2ccc(OCc3ccc(-c4ccccc4)cc3)cc2)C(=O)NS(=O)(=O)c2ccc(NCCCc3ccccc3)c([N+](=O)[O-])c2)cc1`: the Activity result was “Dose-dependent effect”.
